Measured values reported in US7892784B2, “Lactam ring-opening enzyme and use thereof” (priority 2006, dated 2011).
Values after ≈ are worked out from the molar mass of the structure shown. Read-outs that look alike come from different tables or passages of the source.

Legend:
rSttH [1] = biological target: T1, rSttH (Streptomyces noursei, UniProt Q1MW86); assay: rSttH reaction rate test (kinetic analysis, HPLC, Lineweaver-Burk); type: biochemical, Streptomyces albulus NBRC14147; conditions: for Vmax: substrate of rSttH, 30° C., 100 mM NaPB (pH 6.5), U = ST-acid production per minute (μmol)
T1 construct: purified rSttH from E. coli M15 (pREP4) carrying pQE30-SHF6R; 6xHis (N); made in house; host or cells: E. coli M15 (pREP4) carrying pQE30-SHF6R
Description: (§1) In accordance with the manufacturer's (Qiagen) protocols, a reaction mixture (500 μL) was prepared using 100 mM sodium phosphate buffer (pH 6.5), 1 mg/mL ST-F or ST-D, and 100 μg/mL of purified rSttH from E. coli M15 (pREP4) carrying pQE30-SHF6R. The reaction mixture was reacted for 1 hour at 30° C. with or without rSttH, and then extracted with chloroform to remove the proteins. The water layer was analyzed by reverse-phase HPLC using an ion-pair reagent. The analytical conditions were: column, C18 reverse-phase column (COSMOSIL 5C18-AR—II, 250×4.6 mm, Nacalai Tesque, Kyoto, Japan); column temperature, 30° C.; detection, 210 nm; and flow rate, 1 mL/minute. Two different mobile phases were used, one of 0.1% heptafluorobutyric acid+18% acetonitrile (ST-F reaction) and one of 0.1% heptafluorobutyric acid+23% acetonitrile (ST-D reaction). The kinetic assays were performed under conditions similar to those described previously except that the enzyme concentrations (2 μg/mL) and reaction times (5 minutes) were reduced to make them compatible with measurement of steady-state kinetic parameters. All tests were carried out under linear conditions. The reactions were terminated by addition of 15 μl 2N HCl, and then analyzed by HPLC. The kinetic constants were estimated using a Lineweaver-Burk plot. The native molecular weight of the rSttH was estimated by gel filtration using a COSMOSIL 5Diol-300 (7.8 mm×600 mm) column (Nacalai Tesque) which had been equilibrated with 20 mM sodium phosphate buffer (pH 7.0) containing 100 mM sodium sulfate.
(§2) The optimal pH was measured in several buffers (100 mM) with differing pH values: sodium phosphate (NaPB), pH 4.5 to 7; Tris-HCl, pH 7 to 10. Activity peaked at a pH of 6.5 and declined rapidly with decreasing pH (around 4). The effect of temperature on enzymatic activity was also investigated within the range of 25° C. to 75° C. using 100 mM NaPB buffer (pH 6.5). Although enzymatic activity was greatest at 45° C., approximately 90% of maximum activity was also detected at 65° C.

rSttH [2] = system: T2, rSttH; assay: as above; type: biochemical, Streptomyces albulus NBRC14147; conditions: substrate of rSttH; 30° C., 100 mM NaPB (pH 6.5); average ± s.d. of three tests
T2 construct: purified rSttH from E. coli M15 (pREP4) carrying pQE30-SHF6R; 6xHis (N); made in house; host or cells: E. coli M15 (pREP4) carrying pQE30-SHF6R
Description: as §1, §2

S. cerevisiae CKY8 = assay: MIC of ST-F and ST-D in S. cerevisiae CKY8 overexpressing sttH or nat gene; type: cell-based, Saccharomyces cerevisiae; conditions: SC medium, 2 days at 30° C.
Description: After sequence confirmation, the amplified fragments were inserted into the same sites in pAD4 to prepare pAD4-nat and pAD4-sttH, in which these genes were expressed under the control of the constitutive promoter of yeast alcohol dehydrogenase. S. cerevisiae CKY8 strain carrying pAD4-nat and pAD4-sttH was grown in SC-Leu medium containing ST (ST-F or ST-D, 0 to 4 mM), and the MICs of ST-F and ST-D were determined.
(§3) Although it was previously reported that the biological activity of chemically synthesized ST-F-acid is negligible in microorganisms and plants, that of ST-D-acid remains unclear. Therefore, we determined the respective MICs of ST-F and ST-D in E. coli and Saccharomyces cerevisiae overexpressing the sttH gene or nat gene (Table 3). […] To confirm this, the selective toxicity of ST-acids and STs against various microorganisms including gram-positive and -negative bacteria, clinically isolated pathogenic bacteria and yeasts was investigated. […] A “c/a” in parentheses in the table represents the ratio of the minimum inhibitory concentrations of ST-F-acid and ST-F, while “d/b” represents the ratio of the minimum inhibitory concentrations of ST-D-acid and ST-D.

E. coli XL1-Blue MRF' = assay: MIC of ST-F and ST-D in E. coli XL1-Blue MRF' overexpressing sttH or nat gene; type: cell-based, Escherichia coli; conditions: LB medium, 1 day at 37° C.
Description: Restriction enzyme sites (GGATCC or AAGCTT, underlined) and a stop codon (TCA, underlined) were inserted into these primers. An expression vector (pQE30-nat) having incorporated therein an amplified fragment including these primers was constructed using pQE30. The MIC of ST-F and ST-D in an E. coli XL1-Blue MRF′ strain carrying pQE30-nat and pQE30-SHF6R were determined on LB agar flat plates containing ampicillin (100 μg/mL), 0.1 mM IPTG and STs (0 to 4 mM). S. cerevisiae CKY8 strain overexpressing the nat gene and the sttH gene was also prepared as follows. The following two sets of primers having restriction enzyme sites (AAGCTT or CTGCAG, underlined) and stop codons (TCA, underlined) added thereto were designed and used in PCR:
as §3

S. cerevisiae S288C = assay: MIC test of STs and ST-acids; type: cell-based, Saccharomyces cerevisiae; conditions: YPD medium; 2 days at 30° C.
S. pombe L972 = assay: MIC test of STs and ST-acids; type: cell-based, Schizosaccharomyces pombe; conditions: YPD medium; 2 days at 30° C.
E. coli W3110 = assay: MIC test of STs and ST-acids; type: cell-based, Escherichia coli; conditions: Heart Infusion Broth; 1 day at 37° C.
B. subtilis NBRC13169 = assay: MIC test of STs and ST-acids; type: cell-based, Bacillus subtilis; conditions: Heart Infusion Broth; 1 day at 37° C.
S. aureus AB = type: cell-based, Staphylococcus aureus
S. aureus FIR1169 = type: cell-based, Staphylococcus aureus
[3] = system: gram-positive and -negative bacteria, clinically isolated pathogenic bacteria and yeasts; type: cell-based
[4] = system: bacteria, fungi and plants; conditions: chemically synthesized from ST-F; reports of Inamori and Taniyama; cited from earlier work
[5] = Enzymatic properties of rSttH (effect of pH and temperature); type: biochemical
Description: as §2

[6] = Heart Infusion Broth, 1 day at 37° C.

Row | Molecule | Vmax (rSttH [1]) [U/mg] | Km (rSttH [2]) [µM] | Minimum inhibitory concentration (MIC) (S. cerevisiae CKY8; CKY8 + pAD4-nat) [µM] | Minimum inhibitory concentration (MIC) (S. cerevisiae CKY8; CKY8 + pAD4-sttH) [µM] | Minimum inhibitory concentration (MIC) (S. cerevisiae CKY8; CKY8 + pAD4) [µM] | Minimum inhibitory concentration (MIC) (E. coli XL1-Blue MRF'; XL1-Blue MRF' + pQE30-SHF6R) [µM] | Minimum inhibitory concentration (MIC) (E. coli XL1-Blue MRF'; XL1-Blue MRF' + pQE30-nat) [µM] | Minimum inhibitory concentration (MIC) (E. coli XL1-Blue MRF'; XL1-Blue MRF' + pQE30) [µM] | Minimum inhibitory concentration (MIC) (S. cerevisiae S288C) [µM] | Minimum inhibitory concentration (MIC) (S. pombe L972) [µM] | Minimum inhibitory concentration (MIC) (E. coli W3110) [µM] | Minimum inhibitory concentration (MIC) (B. subtilis NBRC13169) [µM] | Minimum inhibitory concentration (MIC) (S. aureus AB; [6]) [mM] | Minimum inhibitory concentration (MIC) (S. aureus FIR1169; [6]) [mM] | ratio of MICs of ST-acid and parent ST (c/a or d/b) (S. cerevisiae S288C) | ratio of MICs of ST-acid and parent ST (c/a or d/b) (S. pombe L972) | ratio of MICs of ST-acid and parent ST (c/a or d/b) (E. coli W3110) | ratio of MICs of ST-acid and parent ST (c/a or d/b) (B. subtilis NBRC13169) | Minimum inhibitory concentration (MIC) (S. aureus AB) | Minimum inhibitory concentration (MIC) (S. aureus FIR1169) | further results
1 | NCCC[C@H](N)CC(=O)NCCC[C@H](N)CC(=O)NCCC[C@H](N)CC(=O)N[C@@H]1[C@H](O)[C@@H](OC(N)=O)[C@@H](CO)O[C@H]1NC1=N[C@@H]2C(=O)NC[C@@H](O)[C@H]2N1 [ST-D, streptothricin D] | 68.95 ± 13.9 | 5740 ± 990 | >4000 | >4000 | <30 | <30 | 2000 | <30 | 4 (≈ 3.04 µg/mL) | 8 (≈ 6.07 µg/mL) | 8 (≈ 6.07 µg/mL) | 4 (≈ 3.04 µg/mL) | 0.004 (≈ 3.04 µg/mL) | 0.004 (≈ 3.04 µg/mL) |  |  |  |  |  |  | 
2 | NCCC[C@H](N)CC(=O)N[C@@H]1[C@H](O)[C@@H](OC(N)=O)[C@@H](CO)O[C@H]1NC1=N[C@@H]2C(=O)NC[C@@H](O)[C@H]2N1 [ST-F, streptothricin F] | 42.26 ± 2.8 | 960 ± 190 | >4000 | >4000 | 500 | 250 | 4000 | <30 | 62 (≈ 31.2 µg/mL) | 125 (≈ 62.8 µg/mL) | 30 (≈ 15.1 µg/mL) | 16 (≈ 8.04 µg/mL) | 0.016 (≈ 8.04 µg/mL) | 0.016 (≈ 8.04 µg/mL) |  |  |  |  |  |  | Vmax/Km of the reaction with ST-F relative to the reaction with ST-D (rSttH [1]; rSttH): 4 fold
3 | NCCCC(N)CC(=O)NC1C(/N=C2/NC(C(=O)O)C(C(O)CN)N2)OC(CO)C(OC(N)=O)C1O (centres unmarked) [ST-F-acid] |  |  |  |  |  |  |  |  | > 4000 | > 4000 | 4000 (≈ 2080 µg/mL) | 4000 (≈ 2080 µg/mL) |  |  | > 64 | > 32 | 133 | 250 | 2 (126) mM | 2 (126) mM | antimicrobial activity [3]: lost almost all of its antimicrobial activity; antibiotic activity [4]: did not exhibit antibiotic activity
4 | lactam ring-opened streptothricin D derivative [ST-D-acid] |  |  |  |  |  |  |  |  | 1000 | 1000 | 250 | 125 |  |  | 250 | 125 | 31.3 | 31.3 | 0.06 (15) mM | 0.06 (15) mM | antimicrobial activity (S. aureus AB): particularly strong antimicrobial activity; antimicrobial activity (S. aureus FIR1169): particularly strong antimicrobial activity
5 | rSttH: recombinant lactam ring-opening enzyme from Streptomyces albulus NBRC14147, N-terminal 6× His Tag fused protein (protein, N-terminal 6xHis tag; streptomyces albulus, recombinant lactam ring-opening enzyme from Streptomyces albulus NBRC14147, N-terminal 6× His Tag fused protein) VTAMPPETAAPPETAAPARPLRPVQALLVVDVQTAFVSGAEAVPEAARVLDRTRGLLARARTAGALVVHLQNDGAPGAVDAPHTPGWELHLPVEPGPREHVVRKTEDDGFADTGLGALLDAAGVTELAVCGVLSEMCVAATARTALELGHRVVLPHDAHATYDIPAAPDISDTVPAAMSSRAAEWALGDEVEIVPRAAAVPFVAPPLAPAPEAPAAAAAPAAGTGLSPAGPPPAPAR |  |  |  |  |  |  |  |  |  |  |  |  |  |  |  |  |  |  |  |  | optimal pH (activity peak) ([5]; 100 mM buffers: NaPB pH 4.5 to 7, Tris-HCl pH 7 to 10): 6.5; enzymatic activity relative to maximum activity ([5]; at 65° C., 100 mM NaPB (pH 6.5)): approximately 90%; temperature of greatest enzymatic activity ([5]; range 25° C. to 75° C., 100 mM NaPB (pH 6.5)): 45 °C
